Measurements as given in ChEMBL document CHEMBL1153655, “Rational design and synthesis of a novel, selective class of thrombin inhibitors: P1-argininal derivatives incorporating P3P4 quaternary lactam dipeptide surrogates” (Bioorg Med Chem Lett, 1997).

How the values were obtained:
Prothrombin = Prothrombin (Homo sapiens, UniProt P00734); assay: The compound was tested in vitro for inhibitory activity against Coagulation factor II
Serine protease 1 = Serine protease 1 (Homo sapiens, UniProt P07477); assay: The compound was tested in vitro for inhibitory activity against human trypsin
Sequence of Serine protease 1 (P07477 whole entry): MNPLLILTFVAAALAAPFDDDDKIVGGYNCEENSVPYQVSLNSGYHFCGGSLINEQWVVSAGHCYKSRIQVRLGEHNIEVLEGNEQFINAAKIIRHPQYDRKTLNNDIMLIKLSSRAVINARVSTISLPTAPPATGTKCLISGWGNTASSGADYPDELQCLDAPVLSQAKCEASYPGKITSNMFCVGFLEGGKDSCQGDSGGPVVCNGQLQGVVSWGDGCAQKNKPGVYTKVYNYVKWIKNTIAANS

Coagulation factor X [1] = target: T1, Coagulation factor X (Homo sapiens, UniProt P00742); assay: The compound was tested in vitro for inhibitory activity against Coagulation factor X; Inactive
T1 sequence (P00742 41-179 limits assumed): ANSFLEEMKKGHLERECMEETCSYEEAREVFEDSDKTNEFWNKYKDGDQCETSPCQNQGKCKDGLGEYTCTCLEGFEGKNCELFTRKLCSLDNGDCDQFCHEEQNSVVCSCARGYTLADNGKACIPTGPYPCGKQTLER
T1 sequence (P00742 235-488 limits assumed): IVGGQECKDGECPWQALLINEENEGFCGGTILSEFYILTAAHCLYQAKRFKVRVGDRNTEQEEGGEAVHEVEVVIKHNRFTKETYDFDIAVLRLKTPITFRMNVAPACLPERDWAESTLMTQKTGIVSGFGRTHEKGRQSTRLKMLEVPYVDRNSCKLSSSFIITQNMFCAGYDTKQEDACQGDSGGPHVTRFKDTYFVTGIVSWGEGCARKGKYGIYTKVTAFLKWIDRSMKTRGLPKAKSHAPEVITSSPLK

Coagulation factor X [2] = target: T1, Coagulation factor X; assay: The compound was tested in vitro for inhibitory activity against Coagulation factor X
Coagulation factor X [3] = target: T1, Coagulation factor X; assay: The compound was tested in vitro for inhibitory activity against Coagulation factor X; inactive

| Structure (SMILES) | IC50 (Prothrombin) | IC50 (Serine protease 1) | IC50 (Coagulation factor X [1]) | IC50 (Coagulation factor X [2]) | IC50 (Coagulation factor X [3]) |
| --- | --- | --- | --- | --- | --- |
| N=C(N)N1CCC[C@H](NC(=O)CN2CCCC[C@](N)(Cc3ccccc3)C2=O)C1O.O=C(O)C(F)(F)F (some centres undefined) | 193 nM | 2500 nM | Not Active |  |  |
| COC(=O)NC1(Cc2ccccc2)CCCCN(CC(=O)N[C@H]2CCCN(C(=N)N)C2O)C1=O (some centres undefined) | 466 nM | 2500 nM |  | 2500 nM |  |
| N=C(N)N1CCC[C@H](NC(=O)CN2CCC[C@H](NS(=O)(=O)Cc3ccccc3)C2=O)C1O (some centres undefined) |  | 1270 nM |  | > 2500 nM |  |
| N=C(N)N1CCC[C@H](NC(=O)CN2CCCC[C@@](N)(Cc3ccccc3)C2=O)C1O (some centres undefined) | 14.9 nM | 969 nM |  | > 2500 nM |  |
| CS(=O)(=O)NC1(Cc2ccccc2)CCCN(CC(=O)N[C@H]2CCCN(C(=N)N)C2O)C1=O (some centres undefined) | 31.9 nM | 52.2 nM |  | > 2500 nM |  |
| N=C(N)N1CCC[C@H](NC(=O)CN2CCC[C@](N)(Cc3ccccc3)C2=O)C1O.O=C(O)C(F)(F)F (some centres undefined) | 138 nM | 2500 nM |  |  | Not Active |
| N=C(N)N1CCC[C@H](NC(=O)CN2CC[C@@](N)(Cc3ccccc3)C2=O)C1O (some centres undefined) | 1380 nM | 1380 nM |  | 2500 nM |  |
| N=C(N)N1CCC[C@H](NC(=O)CN2CCCC[C@H](NS(=O)(=O)Cc3ccccc3)C2=O)C1O (some centres undefined) | 0.71 nM | 152 nM |  | 22.8 nM |  |
| N=C(N)N1CCC[C@H](NC(=O)CN2CCC[C@@](N)(Cc3ccccc3)C2=O)C1O.O=C(O)C(F)(F)F (some centres undefined) | 2.07 nM | 139 nM | Not Active |  |  |
| N=C(N)N1CCC[C@H](NC(=O)CN2CCC(NS(=O)(=O)Cc3ccccc3)C2=O)C1O (some centres undefined) | 125 nM | 538 nM |  | > 2500 nM |  |
